Consider five compounds from PMC3534098 (PLoS ONE, 2012).

The structures appear in SMILES notation. In brackets after ≈: the same amount, converted by molar mass. Like-named read-outs stand apart in the source and are kept apart here.

Data set [1] is described as follows: in vitro. Conditions: mouse, microsomes, pH 7.4.
The next data set relates to M. tuberculosis Beijing. As to the kind of experiment: microbe, parasite or virus in culture. It is filed as cell-based. Conditions: Mycobacterium tuberculosis, read-out: MIC Beijing.
In data set [2] the test system is M. bovis BCG strain Pasteur. As to the kind of experiment: microbe, parasite or virus in culture. The data set is classed as cell-based. Conditions: Mycobacterium tuberculosis variant bovis BCG, read-out: MIC M. bovis BCG.
Data set [3] relates to Enterococcus faecium, Enterococcus faecalis, Haemophilus influenzae, Moraxella catarrhalis, Streptococcus pneumoniae, Escherichia coli and Streptococcus …. The data set is classed as cell-based, Gram-positive and Gram-negative organisms.
Data set [4] concerns M. tuberculosis H37Rv. In words: microbe, parasite or virus in culture. It is filed as cell-based. Conditions: Mycobacterium tuberculosis, read-out: MIC H37Rv.
Data set [5] relates to L1210, HepG2, NEURO 2A, MDCK and H9C2(2-1).
Experiment in data set [6]: not given
The source holds these as a separate data set.

The next data set relates to M. tuberculosis CDC1551. As to the kind of experiment: microbe, parasite or virus in culture. As to conditions: Mycobacterium tuberculosis, CDC1551, read-out: MIC CDC1551. The data set is classed as cell-based.
For a further data set, the system named is M. tuberculosis inh233. As to the kind of experiment: microbe, parasite or virus in culture. The data set is classed as cell-based. Conditions: Mycobacterium tuberculosis, INH233, read-out: MIC inh233.
Data set [7] in a line: in vitro. Conditions: human, microsomes, pH 7.4.
Data set [8] can be described thus: Whole blood pharmacokinetics after oral administration in mice. As to conditions: female, mouse, oral 50 mg/kg suspension in 1% aqueous methylcellulose. The data set is classed as in vivo, C57BL/6 female mice. As to the method: (§1) For pharmacokinetic studies C57BL/6 female mice of 18–20 g weight were used. Experimental compounds were administered through oral gavage at 50 mg/kg dose at a concentration of 20 ml/kg. All mice received treatment in the fed state. Peripheral total blood was the compartment chosen for the establishment of compound concentrations. Drugs were administered as 1% methyl cellulose suspensions and the blood sampling scheme was: 15, 30 and 45 minutes, 1, 1.5, 2, 3, 4, 8 and 24 hours. At each time-point, blood from 4 different animals was obtained. LC-MS was used as the analytical method of choice for the establishment of compound concentration in blood with a sensitivity of LLQ = 1–5 ng/ml in […]. The non-compartmental data analysis was performed with WinNonlin 5.0 and supplementary analysis was performed with GraphPad 4 software. Dose-response studies in an acute murine infection TB model were carried out as previously described.
Figure 2 Whole blood pharmacokinetic profile and main parameters of IP 3 after oral administration of a 50 mg/kg suspension in 1% aqueous methylcellulose.

In data set [9] the test system is M. tuberculosis H37Rv. As to the kind of experiment: Dose response efficacy in acute murine model of TB infection. It is filed as in vivo, B6 mice. On the procedure: as §1
Figure 3 Therapeutic efficacy of anti-tubercular IP 3 against M. tuberculosis H37Rv in vivo. B6 mice were infected by intra-tracheal instillation with 10^5 cfu M. tuberculosis H37Rv per mouse. The mice were treated with the anti-tubercular orally once a day from day 1 to day 8. Efficacy results are expressed as log cfu reduction in the lungs of infected mice and are the mean±SD of five mice. The shaded line indicates the levels of administered mycobacterial inoculum.

Another data set concerns the target cytochrome bc 1 complex. Further details: method as in PMID 6327677. As to conditions: high affinity binding site Qo; cited from earlier work.

Turning to `Cc1ccc2nc(C)c(C(=O)NCc3cccs3)n2c1` [IP 1], the half-life at 0.5 mM in “in vitro [1]” was less than 3 min. The MIC was found to be 0.03 µM (≈ 0.00856 µg/mL) in the data set with M. tuberculosis Beijing; 1 µM (≈ 0.285 µg/mL) in data set [2]; 0.2 µM (≈ 0.0571 µg/mL) in the data set with M. tuberculosis H37Rv [4]; 0.06 µM (≈ 0.0171 µg/mL) with M. tuberculosis CDC1551; 0.03 µM (≈ 0.00856 µg/mL) with M. tuberculosis inh233. For the setting “mouse liver microsomes”, the “Mouse CLint” value is more than 30 ml/min/gprotein. The “MIC Anti-bacterial panel” value in data set [3] is “all>64 µM”. For the same compound, in [5], the “Tox50 Cell lines” value is “all>25 µM”. Also, the “Human CLint” value in data set [6] (human liver microsomes) worked out at 3.9 ml/min/gprotein.
In the case of `Cc1ccc2nc(C(F)(F)F)c(C(=O)NCc3cccc(Cl)c3)n2c1` [IP 2], the half-life at 0.5 mM in “in vitro [1]” and in the data set “in vitro [7]” was less than 3 min each time. The MIC in the data set with M. tuberculosis Beijing was found to be 0.06 µM (≈ 0.0221 µg/mL); with M. tuberculosis H37Rv [4] it was 0.2 µM (≈ 0.0736 µg/mL); in the data set on M. tuberculosis CDC1551, 0.06 µM (≈ 0.0221 µg/mL); with M. tuberculosis inh233, 0.03 µM (≈ 0.011 µg/mL). Further, the “Mouse CLint” value (mouse liver microsomes) was more than 30 ml/min/gprotein. The “MIC Anti-bacterial panel” value in data set [3] is “all>16 µM”. For the same compound, the “Tox50 Cell lines” value in [5] is reported as “all>50 µM”. Besides, the “Human CLint” value in data set [6] (human liver microsomes) was more than 30 ml/min/gprotein.
For the compound `Cc1ccc2nc(C)c(C(=O)NCc3ccc(C(F)(F)F)cc3)n2c1` [IP 3, 2,6-Dimethyl-N-(4-(trifluoromethyl)benzyl)imidazo[1,2-a]pyridine-3-carboxamide], the half-life in “in vitro [1]” amounted to 11.6 min; in “in vitro [7]” it was 15.8 min. Besides, the “Mouse CLint” value (mouse, microsomes) was 7 ml/min/gprotein. Further, the MIC came out at 0.5 µM (≈ 0.174 µg/mL) in data set [2] and 0.03 µM (≈ 0.0104 µg/mL) in the data set on M. tuberculosis H37Rv [4]. The “MIC Anti-bacterial panel” value in data set [3] is listed as “all>16 µM”. The “Tox50 Cell lines” value in [5] was “all>25 µM”. For the same compound, the “Human CLint” value in data set [6] (human, microsomes) is 4.9 ml/min/gprotein. For the same compound, the bioavailability in data set [8] (C57BL/6, whole blood, read-out: F (percentage bioavailability)) was 61%. For the same compound, the AUC in data set [8] (C57BL/6, whole blood, read-out: AUC (Area Under the Curve) (0–8 hours)) came to 4360 ng·h/mL. Also, in [8] (C57BL/6, whole blood, read-out: Cmax (maximum concentration observed in whole blood)), the Cmax was determined as 3400 ng/mL. Further, the “log cfu reduction with respect to non-treated controls” value in the data set on M. tuberculosis H37Rv [9] (300 mg/kg orally once a day from day 1 to day 8, lungs of infected mice) is on record as 2 log cfu; in the data set with M. tuberculosis H37Rv [9] (500 mg/kg orally once a day from day 1 to day 8, lungs of infected mice) it was 2 log cfu. Besides, the behavior in vivo result in the data set with M. tuberculosis H37Rv [9] (acute murine model of TB infection) is “bacteriostatic”. For the same compound, the signs of toxicity entry in the data set on M. tuberculosis H37Rv [9] (any of the administered doses, mice) is on record as “No signs of toxicity”.
For the compound `Cc1ccc2nc(C)c(C(=O)NCc3ccc(Cl)nc3)n2c1` [IP 4, N-((6-Chloropyridin-3-yl)methyl)-2,6-dimethylimidazo[1,2-a]pyridine-3-carboxamide], the half-life is 11.4 min in the data set “in vitro [1]” and more than 30 min in the data set “in vitro [7]”. For the same compound, the “Mouse CLint” value (mouse, microsomes) stood at 7.4 ml/min/gprotein. Further, the MIC (in data set [2]; in the data set on M. tuberculosis H37Rv [4]) was 5 µM (≈ 1.57 µg/mL) each time. In addition, in data set [3], the “MIC Anti-bacterial panel” value is reported as “all>16 µM”. Besides, in data set [5], the “Tox50 Cell lines” value was “all>50 µM”. Further, in data set [6] (human, microsomes), the “Human CLint” value came out at 2.3 ml/min/gprotein.
As to `CO/C(=C/C(N)=O)[C@H](C)[C@H](/C=C/c1csc(-c2csc([C@@H](C)/C=C/C=C/C(C)C)n2)n1)OC` [Myxothiazol, myxothiazol], on cytochrome bc 1 complex, the Kd was less than 1 nM.

What is called half-life is how long it takes for the measured level to halve. As a reminder, the bioavailability is the share of a dose that reaches the circulation, judged against a reference dose that is usually intravenous. The AUC is concentration integrated over time. What is called Kd is a measure of binding affinity in units of concentration.
